Test results from ChEMBL document CHEMBL1201862, “PubChem BioAssay data set” (2004).
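A five-concentration, 48-hour dose response in 96-well plates underlies each endpoint, interpolated linearly between surrounding concentrations. The concentration for 50% growth inhibition is given as GI50.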 Activity calls are given as the source filed them. Rule as the data show it: active = GI50 up to about 1.1 µM and inactive = higher.

Columns and labels:
Assay in all cases: inhibition of tumour cell growth, NCI panel, 48 h
786-0 = tested on: 786-0
A498 = tested on: A498
A549 = tested on: A549
ACHN = tested on: ACHN
CAKI-1 = tested on: CAKI-1
CCRF-CEM = tested on: CCRF-CEM
COLO 205 = tested on: COLO 205
DLD-1 = tested on: DLD-1
DMS-273 = tested on: DMS-273
EKVX = tested on: EKVX
HCC 2998 = tested on: HCC 2998
HCT-116 = tested on: HCT-116
HCT-15 = tested on: HCT-15
HL-60 = tested on: HL-60
HOP-18 = tested on: HOP-18
HOP-62 = tested on: HOP-62
HOP-92 = tested on: HOP-92
HT-29 = tested on: HT-29
IGROV-1 = tested on: IGROV-1
KM-20L2 = tested on: KM-20L2
KM12 = tested on: KM12
LXFL 529 = tested on: LXFL 529
M14 = tested on: M14
M19-MEL = tested on: M19-MEL
MOLT-4 = tested on: MOLT-4
Malme-3M = tested on: Malme-3M
NCI-H226 = tested on: NCI-H226
NCI-H23 = tested on: NCI-H23
NCI-H460 = tested on: NCI-H460
NCI-H522 = tested on: NCI-H522
OVCAR-3 = tested on: OVCAR-3
OVCAR-4 = tested on: OVCAR-4
OVCAR-8 = tested on: OVCAR-8
RXF 393 = tested on: RXF 393
SF-268 = tested on: SF-268
SF-295 = tested on: SF-295
SF-539 = tested on: SF-539
SK-MEL-28 = tested on: SK-MEL-28
SK-MEL-2 = tested on: SK-MEL-2
SK-MEL-5 = tested on: SK-MEL-5
SK-OV-3 = tested on: SK-OV-3
SN12C = tested on: SN12C
SNB-19 = tested on: SNB-19
SNB-75 = tested on: SNB-75
SNB-78 = tested on: SNB-78
SR = tested on: SR
SW-620 = tested on: SW-620
TK-10 = tested on: TK-10
U-251 = tested on: U-251
UACC-257 = tested on: UACC-257
UACC-62 = tested on: UACC-62
UO-31 = tested on: UO-31
DMS-114 = tested on: DMS-114
K562 = tested on: K562
LOX IMVI = tested on: LOX IMVI
OVCAR-5 = tested on: OVCAR-5
RPMI-8226 = tested on: RPMI-8226
BT-549 = tested on: BT-549
DU-145 = tested on: DU-145
Hs-578T = tested on: Hs-578T
MCF7 = tested on: MCF7
MDA-MB-231 = tested on: MDA-MB-231
MDA-MB-435 = tested on: MDA-MB-435
MDA-N = tested on: MDA-N
NCI/ADR-RES = tested on: NCI/ADR-RES
PC-3 = tested on: PC-3
T47D = tested on: T47D

In the case of `CCOC(=O)C1=C(Nc2ccc(Br)cc2)OCC1=O`, the GI50 (786-0) was > 100 µM (inactive), the GI50 (A498) was > 100 µM (inactive) and the GI50 (A549) was > 100 µM (inactive). For the same molecule, the GI50 (ACHN) was > 100 µM (inactive), the GI50 (CAKI-1) was > 100 µM (inactive) and the GI50 (CCRF-CEM) was > 100 µM (inactive). For the same molecule, the GI50 (COLO 205) was > 100 µM (inactive), the GI50 (DLD-1) was > 100 µM (inactive) and the GI50 (DMS-273) was > 100 µM (inactive). For the same molecule, the GI50 (EKVX) was > 100 µM (inactive), the GI50 (HCC 2998) was > 100 µM (inactive) and the GI50 (HCT-116) was > 100 µM (inactive). For the same molecule, the GI50 (HCT-15) was over 100 µM, the GI50 (HL-60) was 17.9 µM (inactive) and the GI50 (HOP-18) was > 100 µM (inactive). For the same molecule, the GI50 (HOP-62) was > 100 µM (inactive), the GI50 (HOP-92) was > 100 µM (inactive) and the GI50 (HT-29) was > 100 µM (inactive). For the same molecule, the GI50 (IGROV-1) was > 100 µM (inactive), the GI50 (KM-20L2) was > 100 µM (inactive) and the GI50 (KM12) was > 100 µM (inactive). The GI50 (LXFL 529) was > 100 µM (inactive), the GI50 (M14) was > 100 µM (inactive) and the GI50 (M19-MEL) was > 100 µM (inactive). The GI50 (MOLT-4) was > 100 µM (inactive), the GI50 (Malme-3M) was > 100 µM (inactive) and the GI50 (NCI-H226) was > 100 µM (inactive). For the same molecule, the GI50 (NCI-H23) was > 100 µM (inactive), the GI50 (NCI-H460) was > 100 µM (inactive) and the GI50 (NCI-H522) was > 100 µM (inactive). For the same molecule, the GI50 (OVCAR-3) was > 100 µM (inactive), the GI50 (OVCAR-4) was > 100 µM (inactive) and the GI50 (OVCAR-8) was > 100 µM (inactive). The GI50 (RXF 393) was > 100 µM (inactive), the GI50 (SF-268) was > 100 µM (inactive) and the GI50 (SF-295) was > 100 µM (inactive). For the same molecule, the GI50 (SF-539) was > 100 µM (inactive), the GI50 (SK-MEL-28) was > 100 µM (inactive) and the GI50 (SK-MEL-2) was > 100 µM (inactive). For the same molecule, the GI50 (SK-MEL-5) was > 100 µM (inactive), the GI50 (SK-OV-3) was > 100 µM (inactive) and the GI50 (SN12C) was > 100 µM (inactive). For the same molecule, the GI50 (SNB-19) was > 100 µM (inactive), the GI50 (SNB-75) was > 100 µM (inactive) and the GI50 (SNB-78) was > 100 µM (inactive). The GI50 (SR) was > 100 µM (inactive), the GI50 (SW-620) was > 100 µM (inactive) and the GI50 (TK-10) was > 100 µM (inactive). The GI50 (U-251) was > 100 µM (inactive), the GI50 (UACC-257) was > 100 µM (inactive) and the GI50 (UACC-62) was > 100 µM (inactive). The GI50 (UO-31) was > 100 µM (inactive).
`CN/N=C(\C(=O)Nc1ccc(C(F)(F)F)cc1[N+](=O)[O-])C(c1cnc2ccc([N+](=O)[O-])cc2n1)[N+](=O)[O-]` (configuration not stated) was tested, and the GI50 (786-0) was 32.4 µM (inactive), the GI50 (A498) was 16.7 µM (inactive) and the GI50 (A549) was 28 µM (inactive). The GI50 (ACHN) was 21.8 µM (inactive), the GI50 (CAKI-1) was 14.3 µM (inactive) and the GI50 (CCRF-CEM) was 9.77 µM (inactive). The GI50 (COLO 205) was 28.6 µM (inactive), the GI50 (DLD-1) was > 100 µM (inactive) and the GI50 (DMS-114) was 10.4 µM (inactive). The GI50 (EKVX) was 6.71 µM (inactive), the GI50 (HCC 2998) was 49.5 µM (inactive) and the GI50 (HCT-116) was 41.4 µM (inactive). The GI50 (HCT-15) was 37.1 µM, the GI50 (HOP-62) was 33 µM (inactive) and the GI50 (HOP-92) was 64.1 µM (inactive). For the same molecule, the GI50 (HT-29) was 67.1 µM (inactive), the GI50 (IGROV-1) was > 100 µM (inactive) and the GI50 (K562) was 8.79 µM (inactive). For the same molecule, the GI50 (KM12) was 48.6 µM (inactive), the GI50 (LOX IMVI) was 12.1 µM (inactive) and the GI50 (LXFL 529) was 21.8 µM (inactive). The GI50 (M14) was > 100 µM (inactive), the GI50 (M19-MEL) was 10.9 µM (inactive) and the GI50 (MOLT-4) was 14.8 µM (inactive). For the same molecule, the GI50 (Malme-3M) was > 100 µM (inactive), the GI50 (NCI-H226) was 17.9 µM (inactive) and the GI50 (NCI-H23) was 62.7 µM (inactive). For the same molecule, the GI50 (NCI-H460) was 33.3 µM (inactive), the GI50 (NCI-H522) was 6.84 µM (inactive) and the GI50 (OVCAR-3) was 28.6 µM (inactive). The GI50 (OVCAR-4) was > 10 µM (inactive), the GI50 (OVCAR-5) was 22.9 µM (inactive) and the GI50 (OVCAR-8) was 59 µM (inactive). The GI50 (RPMI-8226) was 38.2 µM (inactive), the GI50 (RXF 393) was 30.1 µM (inactive) and the GI50 (SF-268) was 73.3 µM (inactive). For the same molecule, the GI50 (SF-295) was 37.7 µM (inactive), the GI50 (SF-539) was 25.6 µM (inactive) and the GI50 (SK-MEL-28) was > 100 µM (inactive). The GI50 (SK-MEL-2) was > 100 µM (inactive), the GI50 (SK-MEL-5) was 28.1 µM (inactive) and the GI50 (SK-OV-3) was > 100 µM (inactive). The GI50 (SN12C) was > 100 µM (inactive), the GI50 (SNB-19) was 96.6 µM (inactive) and the GI50 (SNB-78) was 61.7 µM (inactive). For the same molecule, the GI50 (SR) was 27.7 µM (inactive), the GI50 (SW-620) was 46 µM (inactive) and the GI50 (U-251) was 78.5 µM (inactive). The GI50 (UACC-257) was 44.5 µM (inactive), the GI50 (UACC-62) was > 10 µM (inactive) and the GI50 (UO-31) was 16 µM (inactive).
In the case of `CN(C)CCN1Nc2c3ccccc3nc3c(C(=O)NCCCN(C)CCCNC(=O)c4ccc5c6c(c7ccccc7nc46)NN5CCN(C)C)ccc1c23`, the GI50 (786-0) was < 0.01 µM (active), the GI50 (A498) was 0.0659 µM (active) and the GI50 (A549) was < 0.01 µM (active). The GI50 (ACHN) was < 0.01 µM (active), the GI50 (BT-549) was 0.178 µM (active) and the GI50 (CAKI-1) was 0.199 µM (active). The GI50 (CCRF-CEM) was 0.0274 µM (active), the GI50 (COLO 205) was 0.0143 µM (active) and the GI50 (DU-145) was 0.0217 µM (active). For the same molecule, the GI50 (EKVX) was 0.0504 µM (active), the GI50 (HCC 2998) was < 0.01 µM (active) and the GI50 (HCT-116) was < 0.01 µM (active). For the same molecule, the GI50 (HCT-15) was 0.178 µM, the GI50 (HL-60) was 0.012 µM (active) and the GI50 (HOP-62) was 0.0104 µM (active). For the same molecule, the GI50 (HOP-92) was 0.305 µM (active), the GI50 (HT-29) was < 0.01 µM (active) and the GI50 (Hs-578T) was 0.0352 µM (active). The GI50 (IGROV-1) was < 0.01 µM (active), the GI50 (K562) was < 0.01 µM (active) and the GI50 (KM12) was < 0.01 µM (active). The GI50 (LOX IMVI) was < 0.01 µM (active), the GI50 (M14) was 0.0353 µM (active) and the GI50 (MCF7) was < 0.01 µM (active). The GI50 (MDA-MB-231) was 0.0581 µM (active), the GI50 (MDA-MB-435) was < 0.01 µM (active) and the GI50 (MDA-N) was < 0.01 µM (active). The GI50 (MOLT-4) was < 0.01 µM (active), the GI50 (Malme-3M) was < 0.01 µM (active) and the GI50 (NCI-H226) was 0.0187 µM (active). The GI50 (NCI-H23) was 0.0202 µM (active), the GI50 (NCI-H460) was < 0.01 µM (active) and the GI50 (NCI-H522) was < 0.01 µM (active). For the same molecule, the GI50 (NCI/ADR-RES) was 1.36 µM (inactive), the GI50 (OVCAR-3) was 0.0333 µM (active) and the GI50 (OVCAR-4) was 0.0266 µM (active). The GI50 (OVCAR-5) was 0.0322 µM (active), the GI50 (OVCAR-8) was < 0.01 µM (active) and the GI50 (PC-3) was < 0.01 µM (active). For the same molecule, the GI50 (RPMI-8226) was < 0.01 µM (active), the GI50 (RXF 393) was 0.15 µM (active) and the GI50 (SF-268) was 0.0112 µM (active). The GI50 (SF-295) was < 0.01 µM (active), the GI50 (SF-539) was 0.257 µM (active) and the GI50 (SK-MEL-28) was 0.0498 µM (active). The GI50 (SK-MEL-2) was 0.0109 µM (active), the GI50 (SK-MEL-5) was 0.0147 µM (active) and the GI50 (SK-OV-3) was < 0.01 µM (active). The GI50 (SN12C) was < 0.01 µM (active), the GI50 (SNB-19) was < 0.01 µM (active) and the GI50 (SNB-75) was < 0.01 µM (active). The GI50 (SR) was < 0.01 µM (active), the GI50 (SW-620) was < 0.01 µM (active) and the GI50 (T47D) was 0.153 µM (active). The GI50 (TK-10) was 0.132 µM (active), the GI50 (U-251) was < 0.01 µM (active) and the GI50 (UACC-257) was 0.0224 µM (active). For the same molecule, the GI50 (UACC-62) was 0.0173 µM (active) and the GI50 (UO-31) was 0.0692 µM (active).
